Consider one compound from US20170080049A1, “MEDICINE AGAINST GROWTH FAILURE INDUCED BY ADMINISTRATION OF STEROID” (DAIICHI SANKYO COMPANY, LIMITED, priority 2014, published 2017).

Each structure is given as a SMILES string.

In assay [1] the test system is rat growth failure induced by dexamethasone. The assay is described as follows: Action comparing study between CNP derivative (A) and human growth hormone on rat growth failure induced by dexamethasone (Example 6). Format: in vivo. The settings on record: 2 mL/kg s.c. once a day 28 days, n=4 or 5. The procedure: Osmotic pumps (MINI-OSMOTIC PUMP Model 2004, available from DURECT CORPORATION, flow rate: 0.25 μL/hr, for 28 days) were charged with a 0.67 mg/mL solution of dexamethasone (dexamethasone injection “KS”, available from Kyoritsuseiyaku Corporation), and one osmotic pump was embedded in the hypoderm of the back of each 4-week-old male Crlj:WI (Wistar) rat (5 animals/group, Group 2 to Group 4, total of 15 animals). For Group 3, a 1 mg/mL solution of CNP derivative (A) (medium: 0.03 mol/L acetate buffer (pH 4.0)/1% benzyl alcohol/10% sucrose), and for Group 4, a 1 mg/mL solution of human-type growth hormone preparation (somatropin BS subcutaneous injection 10 mg “SANDOZ”) diluted with a phosphate buffer was administered to the hypoderm of the back of five rats, respectively, in a volume of 2 mL/kg once a day for 28 days. No substance was administered to the normal control group (5 animals, Group 1). On the final day, after measuring the body weight, the body length and the tail length, the blood was collected from the abdominal aorta and the animal was caused to die under isoflurane anesthesia, the left femur was extracted and the bone length was measured, and then a histopathological specimen of the epiphyseal region was prepared.

Assay [2] shares this test system. The assay is described as follows: Follow-up administration test of CNP derivative (A) for rat growth failure induced by dexamethasone (Example 4). The assay is classed as in vivo. The settings on record: n=5. The method, then: Osmotic pumps (MINI-OSMOTIC PUMP Model 2004, available from DURECT CORPORATION, flow rate: 0.25 μL/hr, for 28 days) were charged with a 0.67 mg/mL solution of dexamethasone (dexamethasone injection “KS”, available from Kyoritsuseiyaku Corporation), and one osmotic pump was embedded in the hypoderm of the back of each 4-week-old male Crlj:WI (Wistar) rat (5 animals/group, Group 2 and Group 3), and the animals were fed for 14 days. […] During the feeding period, transitions of the body weight, the body length and the tail length were measured, and on the final day, blood was collected from the abdominal aorta and the animal was caused to die under isoflurane anesthesia, the right femur was extracted and its length was measured.

Setting [3] is: dexamethasone 0.67 mg/mL pump alone or with CNP derivative (A) or human-type growth hormone 1 mg/mL.
[4] abbreviates: dexamethasone 0.67 mg/mL pump alone or with CNP derivative (A) 15 mg/mL pump for 28 days from Day 14.
The mark [5] stands for this setting: dexamethasone 0.67 mg/mL pump, 4-week-old male Wistar rat, baseline before CNP derivative (A).

Take `C[C@@H]1C[C@H]2[C@@H]3CCC4=CC(=O)C=C[C@]4(C)[C@@]3(F)[C@@H](O)C[C@]2(C)[C@@]1(O)C(=O)CO` [Dexamethasone, dexamethasone]: in assay [1] (dexamethasone 0.67 mg/mL pump 28 days alone or with CNP derivative (A) or human-type growth hormone 1 mg/mL, 4-week-old male Wistar rat, mean ± SD), the “Body weight at dissection” value was determined as 245 ± 12 g. Further, in assay [1] (setting [3]), the “Body length at dissection” value is recorded as 199 ± 4 mm; the “Body length, variation from pre-administration value (Δ value)” value is recorded as “(46.8 ± 4.7) mm”; the “Body weight, variation from pre-administration value (Δ value)” value is given as “(139 ± 13) g”; the “Left femur length at dissection” value is on record as 31.3 ± 0.2 mm. In assay [1] (setting [3]), the “Tail length at dissection” value was 197 ± 5 mm and the “Tail length, variation from pre-administration value (Δ value)” value is on record as “(65.0 ± 4.9) mm”. For the same compound, in assay [2] (dexamethasone 0.67 mg/mL pump 28 days alone or with CNP derivative (A) 15 mg/mL pump for 28 days from Day 14, male Wistar rat), the “Body weight at dissection (Day 28 of CNP derivative (A) administration)” value came out at 308 ± 20 g. Moreover, in assay [2] (setting [4]), the “Body length at dissection (Day 28 of CNP derivative (A) administration)” value is given as 204 ± 3 mm, the “Body length variation (Δ value) from starting of administration of CNP derivative (A)” value is on record as “(30 ± 1) mm”, the “Body weight variation (Δ value) from starting of administration of CNP derivative (A)” value is reported as “(129 ± 9) g” and the “Right femur length only at dissection” value was determined as 32.9 ± 0.7 mm. Moreover, in assay [2] (setting [4]), the “Tail length at dissection (Day 28 of CNP derivative (A) administration)” value came out at 202 ± 8 mm and the “Tail length variation (Δ value) from starting of administration of CNP derivative (A)” value is listed as “(25 ± 7) mm”. Besides, in assay [2] (dexamethasone 0.67 mg/mL pump, 4-week-old male Wistar rat, baseline before CNP derivative (A), mean ± SD), the “Body weight, Day 14 of dexamethasone administration (prior to administration of CNP derivative (A))” value was found to be 179 ± 12 g. Also, in assay [2] (setting [5]), the “Body length, Day 14 of dexamethasone administration (prior to administration of CNP derivative (A))” value is on record as 174 ± 4 mm and the “Tail length, Day 14 of dexamethasone administration (prior to administration of CNP derivative (A))” value came to 177 ± 7 mm.
